What was measured:
Type in all cases: cell-based
[1] = target: T1, CDK12/13 (Homo sapiens, UniProt Q9NYV4); assay: CDK12/13 destabilization (expression proteomics and Western blot)
T1 construct: endogenous in cells; host or cells: KBM7 cells
Method: (§1) The hypomorphic phenotype of the mutated UBE2M allele in KBM7 cells (KBM7 UBE2M^mut cells) was assessed. In this regard, CRISPR/Cas9-induced mutation of UBE2M inactivated CRL activity including CRL4^CRBN and CRL2^VHL. […] Additionally, CCNK destabilization by all three compounds was validated via time-resolved immunoblots wherein CCNK degradation was evident after two hours (FIG. 19c).
(§2) PBS-washed cell pellets were lysed in 50 mM Tris pH 7.9, 8M Urea and 1% CHAPS and incubated with shaking at 4° C. for at least 30 min. 20 μg of supernatants were run and transferred for detection. Antibodies used: CUL1 (Santa Cruz Biotechnology, sc-1276), CUL2 (Sigma-Aldrich, SAB2501565-100), CUL3 (Cell Signaling Technology, 2759), CUL4A (Cell Signaling Technology, 2699S), CUL4B (Proteintech, 12916-1-AP), CUL5 (Santa Cruz Biotechnology, sc-373822), UBE2M (Santa Cruz Biotechnology, sc-390064), DDB1 (Cell Signaling Technology, 5428S), CCNK (Bethyl, A301-939A), CDK12 (Cell Signaling Technology, 11973S), CDK13 (Bethyl, A301-458A), RBM39 (1:500, Santa Cruz Biotechnology sc-376531), V5 (Cell Signaling Technology, 13202), Ubiquityl-Histone H2A (K119) (Cell Signaling, 8240-20). ACTIN (Sigma-Aldrich, A5441), VINCUL1N (Santa Cruz Biotechnology, sc-25336). Secondary antibodies anti-mouse/rabbit/goat (Jackson ImmunoResearch 115-035-003, 111-035-003 and 705-035-003).
(§3) Comparison of overall proteome-wide changes in KBM7 cells treated with IC020772.1 (2.5 μM), IC021313.2 (7 μM) or T6938051 (3.5 μM) for 5 h and 12h, using quantitative proteomics based on isobaric tagging.

[2] = target: T2, CDK12:CCNK and DDB1:CUL4B (Homo sapiens, UniProt Q16531+Q9NYV4); assay: Biotin proximity labeling with miniTurbo in live cells; conditions: HEK/293T cells with DDB1- or CDK12-mTurbo fusions, carfilzomib 10 μM
T2 construct: expressed in transfected cells; host or cells: 293T (HEK) cells, transient transfection
T2 sequence (Q9NYV4 whole entry, the tested form may be a part): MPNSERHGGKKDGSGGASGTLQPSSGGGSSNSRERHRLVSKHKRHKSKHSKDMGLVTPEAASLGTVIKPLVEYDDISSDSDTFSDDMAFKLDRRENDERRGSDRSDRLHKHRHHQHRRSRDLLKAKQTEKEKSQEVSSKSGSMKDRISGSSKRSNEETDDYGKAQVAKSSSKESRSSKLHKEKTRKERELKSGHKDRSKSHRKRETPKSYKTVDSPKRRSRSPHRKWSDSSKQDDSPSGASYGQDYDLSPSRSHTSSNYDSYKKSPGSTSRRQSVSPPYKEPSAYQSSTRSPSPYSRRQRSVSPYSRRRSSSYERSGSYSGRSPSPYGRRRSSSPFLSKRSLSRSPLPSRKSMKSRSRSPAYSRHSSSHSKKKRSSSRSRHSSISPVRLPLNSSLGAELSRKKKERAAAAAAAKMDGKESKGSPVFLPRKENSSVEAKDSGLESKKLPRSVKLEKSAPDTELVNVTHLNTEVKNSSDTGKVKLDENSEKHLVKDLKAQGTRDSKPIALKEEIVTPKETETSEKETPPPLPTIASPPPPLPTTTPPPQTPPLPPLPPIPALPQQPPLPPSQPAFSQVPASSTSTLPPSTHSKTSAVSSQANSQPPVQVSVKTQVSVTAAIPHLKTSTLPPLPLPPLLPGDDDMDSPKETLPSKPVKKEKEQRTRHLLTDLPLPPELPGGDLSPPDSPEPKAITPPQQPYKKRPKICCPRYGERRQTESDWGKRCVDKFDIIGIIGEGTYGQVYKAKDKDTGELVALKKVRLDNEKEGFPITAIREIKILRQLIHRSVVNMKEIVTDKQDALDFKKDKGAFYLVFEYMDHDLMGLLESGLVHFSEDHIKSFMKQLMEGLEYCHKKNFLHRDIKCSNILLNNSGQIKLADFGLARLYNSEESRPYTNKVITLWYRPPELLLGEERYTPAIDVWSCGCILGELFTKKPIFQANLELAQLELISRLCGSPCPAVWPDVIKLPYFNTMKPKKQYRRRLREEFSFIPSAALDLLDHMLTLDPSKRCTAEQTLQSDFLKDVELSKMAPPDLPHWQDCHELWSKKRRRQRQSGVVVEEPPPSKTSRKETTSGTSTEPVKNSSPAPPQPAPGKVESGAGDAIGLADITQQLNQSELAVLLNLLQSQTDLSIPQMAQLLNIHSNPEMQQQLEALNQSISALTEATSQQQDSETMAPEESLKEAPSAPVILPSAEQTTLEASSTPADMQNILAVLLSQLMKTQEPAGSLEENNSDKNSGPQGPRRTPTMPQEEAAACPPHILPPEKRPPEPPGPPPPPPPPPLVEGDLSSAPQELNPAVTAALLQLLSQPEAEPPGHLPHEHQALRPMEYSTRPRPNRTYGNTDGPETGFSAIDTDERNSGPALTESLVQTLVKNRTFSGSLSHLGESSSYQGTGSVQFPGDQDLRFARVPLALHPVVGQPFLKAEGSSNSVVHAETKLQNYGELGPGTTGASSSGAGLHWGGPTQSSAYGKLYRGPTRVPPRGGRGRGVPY
T2 sequence (O75909 whole entry partner, the tested form may be a part): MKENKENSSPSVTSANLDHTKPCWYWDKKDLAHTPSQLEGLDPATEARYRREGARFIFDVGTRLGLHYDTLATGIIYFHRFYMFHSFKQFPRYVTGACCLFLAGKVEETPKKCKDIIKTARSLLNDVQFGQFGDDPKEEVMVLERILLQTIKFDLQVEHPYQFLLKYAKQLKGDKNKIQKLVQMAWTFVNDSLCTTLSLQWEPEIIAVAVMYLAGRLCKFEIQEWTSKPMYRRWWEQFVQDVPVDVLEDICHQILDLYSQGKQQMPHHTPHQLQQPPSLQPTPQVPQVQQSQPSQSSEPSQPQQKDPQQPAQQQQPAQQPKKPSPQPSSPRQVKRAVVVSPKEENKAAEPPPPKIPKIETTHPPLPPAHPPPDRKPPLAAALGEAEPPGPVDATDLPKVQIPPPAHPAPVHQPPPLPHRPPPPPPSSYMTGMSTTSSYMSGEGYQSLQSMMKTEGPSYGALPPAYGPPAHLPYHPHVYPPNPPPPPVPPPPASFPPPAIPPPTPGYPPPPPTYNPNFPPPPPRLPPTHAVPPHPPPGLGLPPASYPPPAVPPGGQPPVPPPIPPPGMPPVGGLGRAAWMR
T2 sequence (Q16531 whole entry, the tested form may be a part): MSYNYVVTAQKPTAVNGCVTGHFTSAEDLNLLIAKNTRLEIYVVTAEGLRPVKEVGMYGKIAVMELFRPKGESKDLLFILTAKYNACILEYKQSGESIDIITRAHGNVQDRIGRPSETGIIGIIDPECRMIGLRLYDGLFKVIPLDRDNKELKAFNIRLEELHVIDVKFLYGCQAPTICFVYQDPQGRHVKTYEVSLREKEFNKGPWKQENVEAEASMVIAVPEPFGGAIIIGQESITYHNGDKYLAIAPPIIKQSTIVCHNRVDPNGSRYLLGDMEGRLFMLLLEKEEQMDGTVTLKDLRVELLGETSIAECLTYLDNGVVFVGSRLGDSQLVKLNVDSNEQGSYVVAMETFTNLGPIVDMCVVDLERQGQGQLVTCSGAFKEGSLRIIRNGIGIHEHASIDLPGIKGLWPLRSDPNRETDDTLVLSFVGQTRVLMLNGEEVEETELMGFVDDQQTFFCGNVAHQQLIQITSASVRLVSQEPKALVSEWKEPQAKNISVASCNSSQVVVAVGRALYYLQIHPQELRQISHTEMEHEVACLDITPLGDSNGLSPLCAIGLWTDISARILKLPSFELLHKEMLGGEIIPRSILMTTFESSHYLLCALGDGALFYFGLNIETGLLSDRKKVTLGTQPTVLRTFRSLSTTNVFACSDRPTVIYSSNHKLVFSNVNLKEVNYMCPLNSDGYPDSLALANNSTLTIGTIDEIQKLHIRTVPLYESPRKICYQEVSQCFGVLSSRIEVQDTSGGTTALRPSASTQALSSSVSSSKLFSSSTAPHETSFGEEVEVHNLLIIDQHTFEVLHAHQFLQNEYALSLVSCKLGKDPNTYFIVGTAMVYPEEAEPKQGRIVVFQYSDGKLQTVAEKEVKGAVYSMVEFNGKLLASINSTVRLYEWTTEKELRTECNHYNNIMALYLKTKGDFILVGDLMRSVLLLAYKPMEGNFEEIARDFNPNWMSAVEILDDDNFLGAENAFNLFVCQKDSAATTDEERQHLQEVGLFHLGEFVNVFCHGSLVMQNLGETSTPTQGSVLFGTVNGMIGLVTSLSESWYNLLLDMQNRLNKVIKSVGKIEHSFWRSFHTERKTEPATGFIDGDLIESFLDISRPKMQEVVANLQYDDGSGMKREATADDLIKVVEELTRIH
Method: The direct, drug-induced association of CDK12:CCNK and DDB1:CUL4B was further assessed in a cellular assay based on enzyme-catalyzed proximity labeling via the efficient biotin ligase miniTurbo (mTurbo) (Branon, T. C. et al. Efficient proximity labeling in living cells and organisms with TurboID. Nat Biotechnol 36, 880-887, doi:10.1038/nbt.4201 (2018)) was performed. This assay enables recording dynamic changes in molecular proximity of an mTurbo-tagged bait protein by streptavidin purification of covalently biotinylated, proximal proteins. For this purpose, c-terminally tagged DDB1, or CDK12 mTurbo-fusions were transiently expressed in HEK cells. Cells were treated for one hour with C020772.1 or vehicle (DMSO) control, including a 30 minute biotin labeling pulse (FIG. 20 g, h). […] Vice-versa, DDB1 was only identified as CDK12 interactor after drug treatment, but was not purified after vehicle-control treatment (FIG. 20 h). […]
One 10-cm culture plate of 293T cells (70%-80% confluent) was transfected with 2 μg of pLenti_DDB1_miniTurbo_V5 or pLenti_CDK12_miniTurbo_V5 using Lipofectamine 2000 (Invitrogen, 11668019). […] Eluates were analyzed by WB. Quantification was performed with ImageJ.

[3] = target: T3, CDK12/13 (Homo sapiens, UniProt Q14004); assay: CDK12/13 destabilization (expression proteomics and Western blot); conditions: expression proteomics, drug vs DMSO; Table 4, log2FC < −0.3
T3 construct: endogenous in cells; host or cells: KBM7 cells
T3 sequence (O75909 whole entry): as the sequence (O75909 whole entry partner, the tested form may be a part) above
T3 sequence (Q16531 whole entry, further chain): as the sequence (Q16531 whole entry, the tested form may be a part) above
T3 sequence (Q14004 other isoform, or with tags, fused parts or gaps): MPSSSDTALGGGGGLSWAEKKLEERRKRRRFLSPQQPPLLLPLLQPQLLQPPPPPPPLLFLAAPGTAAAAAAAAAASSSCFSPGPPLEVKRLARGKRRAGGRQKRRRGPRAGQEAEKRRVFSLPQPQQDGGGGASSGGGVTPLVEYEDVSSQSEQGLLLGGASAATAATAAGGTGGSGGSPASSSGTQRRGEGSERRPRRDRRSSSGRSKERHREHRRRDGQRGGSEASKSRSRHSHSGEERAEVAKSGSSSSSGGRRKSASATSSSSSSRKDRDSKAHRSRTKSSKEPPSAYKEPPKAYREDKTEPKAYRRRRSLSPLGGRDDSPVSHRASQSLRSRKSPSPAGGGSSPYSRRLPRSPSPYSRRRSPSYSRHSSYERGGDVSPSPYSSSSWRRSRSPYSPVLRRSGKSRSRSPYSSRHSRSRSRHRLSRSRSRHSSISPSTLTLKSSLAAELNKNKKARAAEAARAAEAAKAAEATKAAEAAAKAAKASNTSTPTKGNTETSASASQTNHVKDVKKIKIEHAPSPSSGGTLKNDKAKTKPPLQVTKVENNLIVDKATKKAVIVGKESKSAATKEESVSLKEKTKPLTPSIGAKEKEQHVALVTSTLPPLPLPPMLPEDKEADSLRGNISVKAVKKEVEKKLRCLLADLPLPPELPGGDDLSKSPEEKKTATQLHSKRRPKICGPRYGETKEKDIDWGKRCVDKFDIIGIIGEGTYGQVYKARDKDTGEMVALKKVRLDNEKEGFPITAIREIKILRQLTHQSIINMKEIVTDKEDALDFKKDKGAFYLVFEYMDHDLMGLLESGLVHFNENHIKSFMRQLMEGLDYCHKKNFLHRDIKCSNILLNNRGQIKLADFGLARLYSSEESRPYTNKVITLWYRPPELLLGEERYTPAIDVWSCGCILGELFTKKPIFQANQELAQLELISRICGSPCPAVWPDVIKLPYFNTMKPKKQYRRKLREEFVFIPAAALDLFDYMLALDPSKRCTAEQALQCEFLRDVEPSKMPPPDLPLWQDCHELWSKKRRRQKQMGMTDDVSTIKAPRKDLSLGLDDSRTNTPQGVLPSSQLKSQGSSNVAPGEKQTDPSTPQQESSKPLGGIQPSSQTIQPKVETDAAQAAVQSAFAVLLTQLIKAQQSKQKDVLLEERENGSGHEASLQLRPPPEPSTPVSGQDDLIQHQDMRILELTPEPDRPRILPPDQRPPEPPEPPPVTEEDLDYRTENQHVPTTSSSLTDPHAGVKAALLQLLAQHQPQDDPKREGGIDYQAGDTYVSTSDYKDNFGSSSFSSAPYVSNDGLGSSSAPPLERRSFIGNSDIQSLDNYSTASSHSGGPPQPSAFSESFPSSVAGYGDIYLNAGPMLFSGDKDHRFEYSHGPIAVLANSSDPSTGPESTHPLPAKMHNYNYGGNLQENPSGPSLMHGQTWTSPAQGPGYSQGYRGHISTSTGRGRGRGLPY
Method: as §1, §2, §3

T1 sequence (Q9NYV4 whole entry): as the sequence (Q9NYV4 whole entry, the tested form may be a part) above
T1 sequence (O75909 whole entry partner): as the sequence (O75909 whole entry partner, the tested form may be a part) above
T1 sequence (Q16531 whole entry partner): as the sequence (Q16531 whole entry, the tested form may be a part) above

Row | Compound | log2FC (IC020772.1/DMSO) ([1]; CDK12 (Q9NYV4-1)) | drug-induced CDK12-DDB1 proximity (biotin labeling) [2] | logFC (IC021313.2/DMSO), CDK13 (Q14004-2) [3] | logFC (IC021313.2/DMSO), CDK12 (Q9NYV4-1) ([1]; expression proteomics, drug vs DMSO, Table 4, log2FC < −0.3)
1 | O=C(CSc1nnc2c(n1)[nH]c1ccccc12)Nc1ccc(Cl)cn1 [IC020772.1] | −1.171 | CDK12 interactions with DDB1 were exclusively identified in the presence of IC020772.1 |  | 
2 | O=C(CSc1nc2ccccc2[nH]1)Nc1ccc(Cl)cn1 [IC021313.2] |  |  | −0.6574 | −0.897

Reference: patent US12410152B2, “Oxazole and thioazole-type cullin ring ubiquitin ligase compounds and uses thereof” (Proxygen GmbH, priority 2019, dated 2025)
